Reference: patent US20020068692A1, “Method for the treatment of neurological or neuropsychiatric disorders” (priority 1996, published 2002)

What was measured:
[1] = test system: patient with Parkinson's disease; test: Bright light therapy plus oral atenolol in patients with Parkinson's disease; format: in vivo, human
Protocol: One patient, diagnosed 3 years earlier with Parkinson's disease, was exposed to bright light therapy (1500 lux) for two, 1 hour sessions per day, one before retiring and one immediately upon arising to antagonize melatonin secretion. This patient was also prescribed 50 mg of the β-noradrenergic antagonist, Atenolol, before going to bed. The patient's performance on motor tests and their body weight were measured before treatment commenced and 2 weeks later. A second patient, diagnosed with Parkinson's disease at least 10 years previously, was tested on the same tests as the first patient.

6-OHDA treated rats = test: Melatonin antagonist therapy in the 6-OHDA rat model (12 hr light/12 hr dark); format: in vivo
Protocol: (§1) After several days of control observations, animals were injected bilaterally with 2 μl of an 8 μg/μl solution of 6-OHDA. Body weight was measured each day just after the onset of the light cycle and motor performance was measured by assessing the performance of animals in the open field and on three tests routinely used to assess motor function. Open field activity was measured in a PVC box fitted with infrared sensors. The number of beams broken during a 10 minute test period was registered. The three reflex tests employed were latency to retract a limb elevated 25 cm above the surface of the test area, latency to step up or down from a raised platform when the rear torso was elevated 30 cm above the test area surface and latency to step outside a prescribed area.
The compound ML-23 was tested in the 6-OHDA model described in Example 1 using a 12 hr light/12 hr dark cycle. Briefly, animals were subject to 13 days controlled observation, on day 14 they were injected with 6-OHDA. Animals in the treatment group were given melatonin antagonist (ML-23 in DMSO (3 mg per mL)) therapy (3 mg/kg/ml, interperitoneal injection (ip)) once on the day of 6-OHDA injection and then twice daily for the 3 subsequent days.
A second melatonin antagonist, S-20928, was tested in the 6-OHDA model described in Examples 1 and 7.

[2] = test system: marmosets made Parkinsonian with the neurotoxin MPTP; test: Oral ML-23 in marmosets made Parkinsonian with MPTP (blinded experiment); format: in vivo
Protocol: The ML-23 formulation was prepared by dissolving ML-23 in 100% DSMO (dimethylsulfoxide 0.7 ml) and then making up to volume (2.3 ml) with soy bean oil for oral administration.

[3] = test system: rats receiving intracerebral injections of 6-OHDA; test: Intracerebroventricular melatonin implants in the 6-OHDA rat model; format: in vivo
Protocol: as §1
In order to produce a sustained central release of melatonin, Regulin® pellets were implanted into the left cerebral ventricle of rats at the time of cannulation of the posterior, lateral hypothalamus (PLH). Control rats were implanted with inert nylon pellets of the same dimensions. […] Animals were cannulated and tested as described in Example 1.

[4] = test system: patients suffering from Parkinson's disease; details: cited from earlier work
[5] = test system: rats receiving intraperitoneal injections of MPTP; test: Intracerebroventricular melatonin implants in the MPTP rat model; format: in vivo
Protocol: The rats were implanted with intracerebral melatonin pellets or inert nylon as described in Example 3 with the exception that they were not implanted with intrahypothalamic cannulae. After the control performance was assessed, all animals received intraperitoneal injections of MPTP on day 4 (7 mg/kg/i.p.). Given that the effects of MPTP are less prolonged and traumatic than 6-OHDA, this provided an opportunity to study the phenomenon of recovery. Body weight was measured daily and motor performance was measured 1 h and 2 days after injection.

[6] = ML-23 3 mg/kg ip, once on day of 6-OHDA then twice daily for 3 days

CC(C)NCC(O)COc1ccc(CC(N)=O)cc1 (stereo not shown) [Atenolol]
time taken to walk a 3 meter path and return ([1]; first patient, after 2 weeks of bright light (1500 lux, two 1 hour sessions per day) plus Atenolol 50 mg, 31.3 seconds before treatment): 13.5 s | gain in body weight ([1]; first patient, after 2 weeks of treatment): 3 kilos | tremor and rigidity ([1]; first patient, after treatment): improved | memory loss and mental state ([1]; first patient, after treatment, permitted a decrease of daily 1-dopa dose): improved | time taken to lift foot to knee and return it to the floor 10 times ([1]; first patient, either leg, two weeks after treatment, 58 s (R) 65 s (L) before treatment): 44 s | latency to touch knee with foot and return to the floor 10 times ([1]; second patient, bright light (1000 lux) 1 hour morning and night plus Atenolal 50 mg, after 5 weeks of treatment, FIG. 26): improved dramatically

COc1ccc2c(c1)C(CCNc1cccc([N+](=O)[O-])c1[N+](=O)[O-])CN2 (stereo not shown) [ML-23]
horizontal and vertical movement, particularly at night (6-OHDA treated rats; ML-23 3 mg/kg ip): significantly improved | overall performance versus vehicle following 6-ODHA injection (6-OHDA treated rats; ML-23 3 mg/kg ip): performed better than those treated with vehicle | body weight loss (6-OHDA treated rats; [6]): prevented the severe body weight loss | development of severe motor impairment (6-OHDA treated rats; [6]): prevented the development of severe motor impairment | survival / recovery (6-OHDA treated rats; ML-23 3 mg/kg ip, 3 out of 7 animals in the 6-ODHA/vehicle group died within 6 days): all rats treated with ML-23 recovered | latency to perform the 3 motor tests (retract a limb, step, ambulate) (6-OHDA treated rats; ML-23 3 mg/kg ip, test and recovery periods): improved | number of changes in head movement ([2]; ML-23 oral 5 mg/kg twice daily for 52 days, vehicle 9.5, p=0.006): 19.8 | horizontal movement at night ([2]; ML-23 oral 5 mg/kg twice daily for 52 days, vehicle 35 counts, p=0.01): 80 counts per 30 minutes | vertical movement ([2]; ML-23 oral 5 mg/kg twice daily for 52 days, vehicle 308, p-0.01): 594 per 30 minutes | intake of dry food ([2]; ML-23 oral, vehicle 1 gram per day, p=0.0001): 3 grams per day | psychotic features score (agitation, frantic non-regulatory biting, vocalization, obstinate progression) ([2]; positive symptoms 48 hours after MPTP treatment, oral ML-23, vehicle score=10, p=0.0005): 2.5 | overall clinical rating of Parkinsonian behavior ([2]; scale 0= normal to 20= severely Parkinsonian, ML-23 oral 5 mg/kg twice daily, vehicle 8.4, p-0.006): 1.4

O=C(NCCc1cccc2ccccc12)C1CCC1 [S-20928]
body weight (most resilient consequence of DA degeneration) (6-OHDA treated rats; S-20928 1 mg/kg ip): capable of repairing | morbidity of the disease (6-OHDA treated rats; S-20928 1 mg/kg ip): decreases the morbidity of the disease | survival time (6-OHDA treated rats; S-20928 1 mg/kg ip): increases survival time

COc1ccc2[nH]cc(CCNC(C)=O)c2c1 [melatonin]
reduction in open field performance relative to animals implanted with inert nylon ([3]; melatonin implants after 6-OHDA): more than twice as much | loss of body weight after 6-OHDA ([3]; melatonin implants vs nylon implants, day 16 to end of experiment, p=0.0143, FIG. 14): more severe loss of body weight | overall change in open field performance and that during the test session ([3]; melatonin implants vs nylon implants, p=0.0022, FIGS. 15A and B): significantly worse | performance on the 3 motor tests (limb retraction, step, ambulate) ([3]; melatonin implants vs nylon, FIGS. 16-18): slower than the animals implanted with nylon although not significant | amelioration of the clinical features of Parkinson's disease ([4]; daily doses of 1000-1200 mg of melatonin per day, ref (18)): 20-36% | tremor ([4]; daily doses of 1000-1200 mg of melatonin per day, ref (19)): significant reduction in tremor | cardinal features of Parkinson's disease, replication study ([4]; similar doses over the same time period, ref (20)): did not improve the cardinal features | body weight gain ([5]; melatonin implants vs nylon, MPTP 7 mg/kg i.p. on day 4, p=0.0201, FIG. 22A/B): did not gain as much weight | ability to step, assessed during the night ([5]; melatonin implants vs nylon, p=0.0238, FIG. 24): significant decrement in the ability to step | motor impairment after MPTP (open field locomotion) ([5]; melatonin pellets vs nylon, overall performance p=0.0344, night trend p=0.0638, FIG. 23A/B): increased the motor impairment
